Experimental data: ChEMBL document CHEMBL1158028, “Triterpene saponins from Eryngium campestre” (J Nat Prod, 2006)
Values after ≈ are worked out from the molar mass of the structure shown.

Key:
HT-29 = assay: Cytotoxicity against human HT-29 cells by MTT assay; format: functional, cell-based
[1] = Cytotoxicity against human HCT 116 cells by MTT assay; format: functional, cell-based

Row | Structure (SMILES) | IC50 (HT-29) | IC50 [1]
1 | CC(=O)OC1[C@H](OC(=O)C=C(C)C)[C@]2(CO)[C@H](O)[C@H](O)[C@]3(C)C(=CC[C@@H]4[C@@]5(C)CC[C@H](O[C@@H]6O[C@H](C(=O)O)[C@@H](O)[C@H](O)[C@H]6O[C@H]6O[C@H](C)[C@@H](O)[C@H](O)[C@@H]6O)C(C)(C)[C@@H]5CC[C@]43C)[C@@H]2CC1(C)C (stereo not given in full) | 40 µg/mL (≈ 42 µM) | 40 µg/mL (≈ 42 µM)
2 | C/C=C(/C)C(=O)O[C@H]1[C@H](O)C(C)(C)C[C@H]2C3=CC[C@@H]4[C@@]5(C)CC[C@H](O[C@@H]6O[C@H](C(=O)O)[C@@H](O[C@@H]7O[C@@H](C)[C@H](O)[C@@H](O)[C@H]7O)[C@H](O)[C@H]6O[C@H]6O[C@@H](CO)[C@H](O)[C@@H](O)[C@@H]6O)C(C)(C)[C@@H]5CC[C@@]4(C)[C@]3(C)[C@@H](O)[C@@H](O)[C@]21CO | > 100 µg/mL | > 100 µg/mL
3 | C/C=C(/C)C(=O)O[C@H]1[C@H](OC(C)=O)C(C)(C)C[C@H]2C3=CC[C@@H]4[C@@]5(C)CC[C@H](O[C@@H]6O[C@H](C(=O)O)[C@@H](O)[C@H](O)[C@H]6O[C@H]6O[C@H](C)[C@@H](O)[C@H](O)[C@@H]6O)C(C)(C)[C@@H]5CC[C@@]4(C)[C@]3(C)[C@@H](O)[C@@H](O)[C@]21CO | 40 µg/mL (≈ 42 µM) | 40 µg/mL (≈ 42 µM)
4 | C/C=C(/C)C(=O)O[C@H]1[C@H](O)C(C)(C)C[C@H]2C3=CC[C@@H]4[C@@]5(C)CC[C@H](O[C@@H]6O[C@H](C(=O)O)[C@@H](O)[C@H](O)[C@H]6O[C@H]6O[C@H](C)[C@@H](O)[C@H](O)[C@@H]6O)C(C)(C)[C@@H]5CC[C@@]4(C)[C@]3(C)[C@@H](O)[C@@H](O)[C@]21CO | 40 µg/mL (≈ 43.9 µM) | 40 µg/mL (≈ 43.9 µM)
5 | CC(C)=CC(=O)O[C@H]1CC(C)(C)C[C@H]2C3=CC[C@@H]4[C@@]5(C)CC[C@H](O[C@@H]6O[C@H](C(=O)O)[C@@H](O[C@H]7O[C@H](C)[C@@H](O)[C@H](O)[C@@H]7O)[C@H](O)[C@H]6O[C@@H]6O[C@H](CO)[C@@H](O)[C@H](O)[C@H]6O)C(C)(C)[C@@H]5CC[C@@]4(C)[C@]3(C)[C@@H](O)[C@@H](O)[C@@]12CO | 40 µg/mL (≈ 37.8 µM) | 40 µg/mL (≈ 37.8 µM)
6 | CC(=O)O[C@H]1C(=O)[C@@]2(C)[C@H]([C@H](OC(=O)c3ccccc3)[C@]3(O)C[C@H](OC(=O)[C@H](O)[C@@H](NC(=O)c4ccccc4)c4ccccc4)C(C)=C1C3(C)C)[C@]1(OC(C)=O)CO[C@@H]1C[C@@H]2O [PACLITAXEL] | – | 0.008 µg/mL (≈ 0.00937 µM)
7 | C/C=C(/C)C(=O)O[C@H]1[C@H](O)C(C)(C)C[C@H]2C3=CC[C@@H]4[C@@]5(C)CC[C@H](O[C@@H]6O[C@H](C(=O)O)[C@@H](O)[C@H](O)[C@H]6O[C@H]6O[C@H](C)[C@@H](O)[C@H](O)[C@@H]6O)C(C)(C)[C@@H]5CC[C@@]4(C)[C@]3(C)[C@@H](O)[C@@H](O)[C@]21COC(C)=O | > 100 µg/mL | > 100 µg/mL
8 | CC(C)=CC(=O)O[C@H]1CC(C)(C)C[C@H]2C3=CC[C@@H]4[C@@]5(C)CC[C@H](O[C@@H]6O[C@H](C(=O)O)[C@@H](O)[C@H](O)[C@H]6O[C@H]6O[C@H](C)[C@@H](O)[C@H](O)[C@@H]6O)C(C)(C)[C@@H]5CC[C@@]4(C)[C@]3(C)[C@@H](O)[C@@H](O)[C@@]12CO | 40 µg/mL (≈ 44.7 µM) | 40 µg/mL (≈ 44.7 µM)
